Cytotoxicity data for 92 compounds are collected here from ChEMBL document CHEMBL3507680, “University of Dundee, Gates Library screen for HepG2 cell viability”.

This data set can be described thus: Human HepG2 cell viability assay in 384 well format. Set-up: dose 125 nL, time 70.5 hour; cytotoxicity at 70.5 h: concentration not given beside the values. The following applies: HepG2 cells, read-out: Inhibition. It counts as toxicity, cell-based.

The structures appear in SMILES notation.

On to `O=C1CO[C@H]2CN(C3CCOCC3)C[C@H]2N1Cc1ccncc1`, for which the cytotoxicity at 70.5 h was 0.0501%.
In the case of `CNC(=O)C(C)(C)N1CCC[C@H]1C(=O)NCCN1CCOCC1` it was -6.76%; in that of `O=C1C[C@@H]2CCN(Cc3ccccc3)C[C@@H]2CCN1C1CCCCC1`, 6.87%; in that of `COCCOc1ccc(-c2noc([C@@H]3CCCN3C3CCC3)n2)cn1`, -3.43%.
In the case of `COCCOc1ccnc(-c2noc([C@@H]3CCCN3CC3CC3)n2)c1` it was -9.26%.
Under `COCCOc1ccnc(-c2noc([C@@H]3CCCN3C3CCC3)n2)c1` stands -5.26%.
With `CC(C)C[C@@H]1N[C@H](C(=O)NC(C)C)Cc2c[nH]c3cccc1c23`, the cytotoxicity at 70.5 h was -1.24%.
With `CCN(CC)C1(Cc2cc(-c3cccc(O)c3)on2)COC1`, the cytotoxicity at 70.5 h was -8.06%.
In the case of `N#Cc1ccc(CN2C[C@@H]3OCC(=O)N(CC(N)=O)[C@@H]3C2)cc1`, the cytotoxicity at 70.5 h was -3.35%.
Consider `CC(C)(C)c1coc([C@@H]2COCCN2Cc2csnn2)n1`, for which the cytotoxicity at 70.5 h is -1.66%.
Regarding `COCC(=O)N[C@H]1C[C@@H](Cc2cc(CN3CCOCC3)on2)C1(C)C`, the cytotoxicity at 70.5 h was determined as 11.2%.
In the case of `CC[C@H]1CN(S(C)(=O)=O)CC[C@H]1CC(=O)NCCOC` it was 9.53%; in that of `Cn1ccnc1CN1C(=O)CO[C@H]2CN(Cc3ccccc3O)C[C@H]21`, -1.59%; in that of `CC(=O)N1CCC(N2CCOC[C@H]2c2nc(-c3ccc(Cl)s3)c[nH]2)CC1`, -2.53%.
Take `COCCN1C[C@H]2CN(C(=O)C3CC3)CCN2C1=O`: the cytotoxicity at 70.5 h amounted to 3.48%.
In the case of `Cn1cc(CN2CCOC[C@H]2c2nc(C(C)(C)C)co2)c2ccccc21` it was -2.71%; in that of `Cc1nn(CCC#N)c(C)c1[C@@H]1C=C[C@@H](NCc2cccc(Cl)c2)C1`, -4.45%; in that of `O=C(N[C@@H]1CNCCC[C@H]1O)c1ccc(OCc2ccccc2)cc1`, -2.25%.
For `COc1ccc(-c2noc([C@@H]3C[C@H](NC(=O)NC(C)C)CN3C)n2)cc1`, the cytotoxicity at 70.5 h was -0.383%.
For the compound `CCS(=O)(=O)c1ccc2oc([C@H]3CCN(Cc4ccccc4)C3)nc2c1`, the cytotoxicity at 70.5 h was determined as 2.59%.
On to `O=C(C1CC1)N1CC[C@H](c2nnc(Cc3c[nH]c4ccccc34)o2)C1`, for which the cytotoxicity at 70.5 h was -1.09%.
`CC(=O)N1CCC(N2CCN3C(=O)N(c4ccccc4)C[C@H]3C2)CC1`: the cytotoxicity at 70.5 h came out at 3.66%.
In the case of `c1ccc(O[C@H]2COCCN(CC3CC3)C2)cc1`, the cytotoxicity at 70.5 h is -1.48%.
Regarding `O=C(NC[C@H]1OC[C@@H](NCc2ccccc2F)[C@@H]1O)c1ccc(F)cc1`, the cytotoxicity at 70.5 h is -3.67%.
Under `O[C@H]1CC[C@@H](Cc2cc(-c3ccccc3)on2)O[C@@H]1CNCC1CC1` stands -5.25%; under `Cc1ccc(CNC[C@H]2Cn3cc(-c4ccccc4)nc3CO2)cc1`, -4.13%; under `Cc1cccnc1CNC[C@H]1Cn2cc(-c3ccccc3)nc2CO1`, -6.83%.
Turning to `COc1ccc(CN2CC[C@H](c3nc4cccc(C(N)=O)c4[nH]3)C2)cc1`, the cytotoxicity at 70.5 h came to 3.39%.
Take `F[C@@H]1CN(CC2CCCCC2)C[C@@H]1OCc1nc2ccccc2o1`: the cytotoxicity at 70.5 h was determined as 1.33%.
In the case of `CCS(=O)(=O)c1ccc2oc([C@H]3CCN(Cc4ccccn4)C3)nc2c1`, the cytotoxicity at 70.5 h was 2.52%.
With `CN1CCC(N[C@@H]2CO[C@H](CNC(=O)Nc3ccccc3)[C@H]2O)CC1`, the cytotoxicity at 70.5 h was -2.44%.
In the case of `O=C(NC[C@H]1OC[C@@H](NC2CCC(F)(F)CC2)[C@@H]1O)c1ccccc1` it was -0.0244%.
For `O=C1N(C2CCCCC2)C[C@H]2CN(C3CCC3)CCN12`, the cytotoxicity at 70.5 h came to 9.88%.
Take `CS(=O)(=O)NC[C@H]1Cn2c(-c3ccc4c(c3)OCCO4)cnc2CO1`: the cytotoxicity at 70.5 h was -13.2%.
In the case of `CC[C@H]1CN(S(C)(=O)=O)CC[C@H]1CC(=O)NCCSC`, the cytotoxicity at 70.5 h is -2.51%.
Under `CC(C)(C)C(=O)N1CC[C@H]2NC(=O)N(c3ccc(F)cc3)C(=O)[C@H]21` stands -4.77%; under `O=C1N[C@@H]2CCN(C(=O)C3CC3)[C@@H]2C(=O)N1c1ccc(F)cc1`, -13.5%.
In the case of `CC(C)(C)CC(=O)N1CC[C@@H](CC(=O)O)[C@@H](CCN2CCCCC2)C1`, the cytotoxicity at 70.5 h amounted to 8.46%.
Under `O=C1N[C@@H]2CCN(C(=O)N3CCOCC3)[C@@H]2C(=O)N1Cc1ccccc1` stands -4.61%; under `CS(=O)(=O)N1CC[C@@H](CC(=O)O)[C@@H](CC2=NCCc3cc(F)ccc32)C1`, -6.32%; under `CC(C)(C)c1cn(C[C@H]2CC3CCN2C[C@@H]3C(=O)NC2CC2)nn1` (some centres not stated), 10.5%.
In the case of `O=C(Nc1ccccc1)[C@H]1CN2CC[C@H]1C[C@@H]2Cn1cc(CCO)nn1` it was -3.35%; in that of `COc1ccc(C(=O)N2CCN3C(=O)CNC(=O)[C@@H]3C2)cc1`, 12.5%.
With `COCC(=O)NC[C@H]1C[C@@H]2CCN1C[C@@H]2c1cc(-c2cccs2)nn1C`, the cytotoxicity at 70.5 h was -7.87%.
For `O=C(NC[C@H]1C[C@@H]2CCN1C[C@@H]2CN1CCCCC1)Nc1ccccc1`, the cytotoxicity at 70.5 h was -1.01%.
On to `CN(C)CCN1C(=O)CCCC12CCCN(Cc1ccc[nH]1)C2` (configuration not stated), for which the cytotoxicity at 70.5 h was determined as 26%.
Turning to `O=C(C1CCOCC1)N1C[C@H]2CNC[C@H]2C1`, the cytotoxicity at 70.5 h is -1.57%.
Take `CCS(=O)(=O)N1CCC2(CCN(CC(=O)N(C)C)C2=O)CC1`: the cytotoxicity at 70.5 h was -1.33%.
Consider `O=C(NCc1ccccc1)N1C[C@H]2CCN[C@H]2C1`, for which the cytotoxicity at 70.5 h worked out at 26%.
In the case of `CC(=O)N1CCC2(CCN(S(=O)(=O)c3ccccc3)CC2)C1`, the cytotoxicity at 70.5 h was found to be 22.3%.
Turning to `CC(=O)N1CCC2(CC1)CCN(S(=O)(=O)c1ccccc1)C2`, the cytotoxicity at 70.5 h worked out at 29.2%.
`CCCS(=O)(=O)N1C[C@H]2C[C@H](C(=O)N3CCOCC3)[C@@H](C1)O2`: the cytotoxicity at 70.5 h was -4.21%.
As to `O=C(CCc1ccccc1)N1C[C@H]2CCN[C@H]2C1`, the cytotoxicity at 70.5 h is -7.82%.
Regarding `CC(C)(C)C(Cn1cccn1)NC(=O)c1ccco1` (configuration not stated), the cytotoxicity at 70.5 h was -2.47%.
Under `O=C1CCC(=O)N1c1nn(Cc2cccc(F)c2)cc1Cl` stands -0.348%; under `Cc1cc(I)c2c(c1)C(=O)C(CN1CCCC1)(CN1CCCC1)CO2`, -0.395%; under `Cc1nnc(SCc2ccccn2)s1`, 1.03%.
As to `Fc1ccccc1C1NCCc2cc3c(cc21)OCCO3` (configuration not stated), the cytotoxicity at 70.5 h worked out at 0.151%.
On to `Cc1cc(C)n(CNc2nonc2C(N)=O)n1`, for which the cytotoxicity at 70.5 h was found to be 36%.
As for `O=C(CN1CCCCC1)Nc1ncc(Br)cc1Br`, the cytotoxicity at 70.5 h amounted to 48.9%.
For `O=C(O)CCc1nc2nccc(-c3ccc(F)cc3)n2n1`, the cytotoxicity at 70.5 h is 20.1%.
Consider `Cn1cc(-c2cc(C(F)(F)F)n(CCCN)n2)cn1`, for which the cytotoxicity at 70.5 h turned out to be 20%.
Turning to `CCC(CCN)n1ccc(C(F)(F)F)n1` (configuration not stated), the cytotoxicity at 70.5 h turned out to be 4.74%.
For `COc1ccccc1CNc1cnn(CC(F)F)c1`, the cytotoxicity at 70.5 h amounted to 1.56%.
Under `COC(=O)c1ccc(CNCc2ccn(C)n2)cc1` stands 17.7%; under `O=C(O)CCc1nc2nccc(C(F)(F)F)n2n1`, 0.723%; under `O=C(O)c1cc(-c2cccs2)nc2c(Cl)cnn12`, -5.65%.
Consider `N#Cc1cc2c(nc1SCc1cc(O)nc(O)n1)CCCC2`, for which the cytotoxicity at 70.5 h was -7.89%.
Under `COC(=O)N1CC(C)=C(C)CN1C(=O)Nc1ccc(Cl)cc1` stands 3.18%; under `Cc1cc(Br)c(O)c(-c2nc(N3CCCCC3)sc2C)c1`, 13.1%; under `CCCc1c(C(=O)NC2CCCC2)nnn1-c1ccc(OC)cc1`, 16.8%.
Take `COc1ccc(-c2ccnc3c2C(=O)CCC3)cc1`: the cytotoxicity at 70.5 h amounted to 25.7%.
As for `CC(C)c1cc(C(F)(F)F)n2nc(CCC(=O)O)nc2n1`, the cytotoxicity at 70.5 h worked out at 10.3%.
As to `CCn1cc(CN(C)S(=O)(=O)c2cnn(CC)c2C)c(C)n1`, the cytotoxicity at 70.5 h came out at 5.14%.
Regarding `COc1ccc(Oc2cncc(C3CCCN3C(C)=O)n2)cc1` (configuration not stated), the cytotoxicity at 70.5 h was found to be 31.7%.
In the case of `Cc1cc2cc(C(=O)N[C@@H]3CC[C@@H](N4CCOCC4)[C@@H]3O)ccc2o1` it was 24.8%; in that of `CNC(=O)C1(N2CCC[C@H]2C(=O)NC2CCCCC2)CCOCC1`, 5.4%; in that of `CCNC(=O)[C@@H]1CCCN1[C@@H](C(=O)NC)C1CC1`, -2.16%.
Turning to `CCCNC(=O)[C@@H]1CCCN1[C@@H](C(=O)NC)C1CC1`, the cytotoxicity at 70.5 h was -11.8%.
Consider `CNC(=O)C1(N2CCC[C@H]2C(=O)NC2CCOCC2)CCOCC1`, for which the cytotoxicity at 70.5 h was -6.78%.
Under `CC(C)NC[C@@]1(COc2ccccc2)C[C@@H](O)[C@@H](O)C1` stands -5.31%; under `CNC(=O)C(C)(C)N1CCC[C@H]1C(=O)NCC(C)C`, -6.89%.
`CCc1ccc(CN2CC[C@@H]3NC(=O)CC[C@@H]32)o1`: the cytotoxicity at 70.5 h worked out at 27%.
Under `O=C(C1CC1)N1CCC2(CCN2Cc2ccc(F)cc2)C1` (configuration not stated) stands -0.516%; under `Cc1nc(CN2C[C@@H]3CN(C(=O)c4cccn4C)C[C@@H]3C2)cs1`, -6.14%.
`CCN1C(=O)CC(c2ccccc2)C12CCN(CC1CCOCC1)CC2` (configuration not stated): the cytotoxicity at 70.5 h was -8.46%.
Turning to `COc1ccc(C[C@H]2CNCC[C@@H]2OC)cc1`, the cytotoxicity at 70.5 h was -5.86%.
For `CC(C)NC(=O)N1CC[C@H]2[C@H]1CCN2c1ncccn1`, the cytotoxicity at 70.5 h is -5.58%.
For the compound `Cc1ccc(CN2C[C@@H]3CN(C(=O)c4cccn4C)C[C@@H]3C2)cc1`, the cytotoxicity at 70.5 h was -3.66%.
Regarding `Cc1cccc(CN2CCCCC23CCNC3)n1` (configuration not stated), the cytotoxicity at 70.5 h is -8.16%.
Under `CN1CCN(Cc2cccnc2)C(=O)C12CCN(Cc1ccco1)CC2` stands -8.43%; under `CN1CCCCc2c1nc1c(c2N)CCC1.O=C(O)c1cc([N+](=O)[O-])ccc1Cl`, -11.7%.
